Laboratory results: patent publication US20140018347A1, “BENZOXAZEPINES AS INHIBITORS OF mTOR AND METHODS OF THEIR USE AND MANUFACTURE” (Exelixis, Inc., priority 2010, published 2014)

Columns and labels:
PI3Kalpha = PI3Kalpha (Homo sapiens, UniProt P42336); assay: PI3K Biochemical Assays (PI3K-alpha assay); settings: ATP consumption, luciferase-luciferin; 1 μM ATP, 10 μM PIP2
Description: PI3Kn activity was measured as the percent of ATP consumed following the kinase reaction using luciferase-luciferin-coupled chemiluminescence. Reactions were conducted in 384-well white, medium binding microtiter plates (Greiner). Kinase reactions were initiated by combining test compounds, ATP, substrate (PIP2), and kinase in a 20 μL volume in a buffer solution. The standard PI3Kalpha assay buffer was composed 50 mM Tris, pH 7.5, 1 mM EGTA, 10 mM MgCl2, 1 mM DTT and 0.03% CHAPS. The standard assay concentrations for enzyme, ATP, and substrate were 3 nM, 1 μM, and 10 μM, respectively. The reaction mixture was incubated at ambient temperature for approximately 2 h. Following the kinase reaction, a 10 μL aliquot of luciferase-luciferin mix (Promega Kinase-Glo) was added and the chemiluminescence signal measured using a Victor2 or EnVision (Perkin Elmer). Total ATP consumption was limited to 40-60% and IC50 values of control compounds correlate well with literature references. Substituting PI3Kα with PI3Krβ, PI3Kγ, or PI3Kδ, the inhibitory activity of the compounds for the other isoforms of PI3K were measured. For the PI3Kβ and PI3Kδ assays, enzyme concentrations were 10 nM and 4 nM, respectively. For the PI3Kγ assay, enzyme concentration was 40 nM, the incubation time was 1 h, and the concentration of MgCl2 in the assay buffer was 5 mM.

mTORC1 = mTORC1 (Homo sapiens, UniProt P42345); assay: mTOR/GbL/Raptor (mTORC1) ELISA Assay; assay type: biochemical; settings: phosphorylation of 4E-BP1; 0.2 nM mTORC1, 10 μM ATP
Description: The measurement of mTORC1 enzyme activity was performed in an ELISA assay format following the phosphorylation of 4E-BP1 protein. All experiments were performed in the 384-well format. Generally, 0.5 μL DMSO containing varying concentrations of the test compound was mixed with 15 μL enzyme solution. Kinase reactions were initiated with the addition of 15 μL of substrates-containing solution. The assay conditions were as follows; 0.2 nM mTORC1, 10 μM ATP and 50 nM NHis-tagged 4E-BP1 in 20 mM Hepes, pH 7.2, 1 mM DTT, 50 mM NaCl, 10 mM MnCl2, 0.02 mg/mL BSA, 0.01% CHAPS, 50 mM β-glycerophosphate. Following an incubation of 120 minutes at ambient temperature, 20 μL of the reaction volume was transferred to a Ni-Chelate-coated 384-well plate. The binding step of the 4E-BP1 protein proceeded for 60 minutes, followed by washing 4 times each with 50 μL of Tris-buffered saline solution (TBS). Anti-phospho-4E-BP1 rabbit-IgG (20 μL, 1:5000) in 5% BSA-TBST (0.2% Tween-20 in TBS) was added and further incubated for 60 minutes. Incubation with a secondary HRP-tagged anti-IgG was similarly performed after washing off the primary antibody (4 washes of 50 μL). Following the final wash step with TBST, 20 μL of SuperSignal ELISA Femto (Pierce Biotechnology) was added and the luminescence measured using an EnVision plate reader.

Sequence of PI3Kalpha (P42336 whole entry): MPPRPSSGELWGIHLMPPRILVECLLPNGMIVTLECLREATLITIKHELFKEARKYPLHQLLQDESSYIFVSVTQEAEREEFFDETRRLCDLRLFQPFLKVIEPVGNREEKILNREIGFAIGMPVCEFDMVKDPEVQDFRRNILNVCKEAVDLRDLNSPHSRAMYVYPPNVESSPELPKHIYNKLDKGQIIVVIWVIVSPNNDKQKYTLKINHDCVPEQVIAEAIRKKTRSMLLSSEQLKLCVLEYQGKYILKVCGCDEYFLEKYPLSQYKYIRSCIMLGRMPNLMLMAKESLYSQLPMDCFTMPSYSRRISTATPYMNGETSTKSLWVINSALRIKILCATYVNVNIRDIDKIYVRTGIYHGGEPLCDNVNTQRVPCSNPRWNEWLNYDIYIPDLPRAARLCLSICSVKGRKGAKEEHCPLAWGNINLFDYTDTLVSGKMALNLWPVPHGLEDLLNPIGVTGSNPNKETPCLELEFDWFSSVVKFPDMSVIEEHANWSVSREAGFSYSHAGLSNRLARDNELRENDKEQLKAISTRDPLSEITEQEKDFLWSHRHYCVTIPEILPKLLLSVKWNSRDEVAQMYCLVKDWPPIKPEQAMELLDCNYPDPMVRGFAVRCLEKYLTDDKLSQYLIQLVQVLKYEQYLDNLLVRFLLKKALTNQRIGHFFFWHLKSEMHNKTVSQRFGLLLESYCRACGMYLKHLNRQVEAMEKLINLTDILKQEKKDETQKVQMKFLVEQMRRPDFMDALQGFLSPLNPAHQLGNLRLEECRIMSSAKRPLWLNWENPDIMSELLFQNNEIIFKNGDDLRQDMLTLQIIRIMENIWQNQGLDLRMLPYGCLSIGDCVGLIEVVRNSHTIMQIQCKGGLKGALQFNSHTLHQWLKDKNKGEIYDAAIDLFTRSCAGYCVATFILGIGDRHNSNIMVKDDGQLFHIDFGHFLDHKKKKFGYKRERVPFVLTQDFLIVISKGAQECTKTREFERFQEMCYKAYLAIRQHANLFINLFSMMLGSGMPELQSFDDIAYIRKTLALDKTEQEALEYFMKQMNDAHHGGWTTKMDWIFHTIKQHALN
Sequence of PI3Kalpha (P27986 whole entry partner): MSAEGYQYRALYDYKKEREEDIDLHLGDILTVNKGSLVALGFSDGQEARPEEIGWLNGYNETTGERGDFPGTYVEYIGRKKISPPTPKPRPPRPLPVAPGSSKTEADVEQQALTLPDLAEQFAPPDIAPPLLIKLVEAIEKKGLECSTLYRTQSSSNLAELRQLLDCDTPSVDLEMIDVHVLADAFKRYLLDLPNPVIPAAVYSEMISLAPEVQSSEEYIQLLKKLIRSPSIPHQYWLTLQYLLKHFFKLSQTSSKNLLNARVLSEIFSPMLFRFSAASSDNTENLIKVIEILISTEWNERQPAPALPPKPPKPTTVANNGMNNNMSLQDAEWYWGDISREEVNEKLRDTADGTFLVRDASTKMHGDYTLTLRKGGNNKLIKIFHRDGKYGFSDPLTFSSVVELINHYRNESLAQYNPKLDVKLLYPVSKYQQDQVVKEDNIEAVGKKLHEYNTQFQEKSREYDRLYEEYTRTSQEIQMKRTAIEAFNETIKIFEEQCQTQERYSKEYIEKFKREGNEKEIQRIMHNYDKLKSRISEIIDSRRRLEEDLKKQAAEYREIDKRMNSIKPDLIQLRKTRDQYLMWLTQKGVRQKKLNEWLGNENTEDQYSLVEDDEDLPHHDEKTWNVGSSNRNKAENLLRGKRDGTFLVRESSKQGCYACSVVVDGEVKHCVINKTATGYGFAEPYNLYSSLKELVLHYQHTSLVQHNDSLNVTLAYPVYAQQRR

IC50 (PI3Kalpha) | IC50 (mTORC1) | SMILES
≤ 100 nM | ≤ 100 nM | N#Cc1cnc(N)cc1N1CCOc2ccc(-c3cnc4sc(N)nc4c3)cc2C1 [Compound 58, 6-amino-4-[7-(2-amino[1,3]thiazolo[5,4-b]pyridin-6-yl)-2,3-dihydro-1,4-benzoxazepin-4(5H)-yl]pyridine-3-carbonitrile]
100 to 500 nM | 500 to 2500 nM | Cc1nc(CN(C)C)nc(N2CCOc3ccc(-c4cnc5sc(N)nc5c4)cc3C2)c1CC(=O)O [Compound 18, {4-[7-(2-amino[1,3]thiazolo[5,4-b]pyridin-6-yl)-2,3-dihydro-1,4-benzoxazepin-4(5H)-yl]-2-[(dimethylamino)methyl]-6-methylpyrimidin-5-yl}acetic acid]
≤ 100 nM | ≤ 100 nM | C#CCc1c(C)nc(N)nc1N1CCOc2ccc(-c3cnc4sc(N)nc4c3)cc2C1 [Compound 71, 6-[4-(2-amino-6-methyl-5-prop-2-yn-1-ylpyrimidin-4-yl)-2,3,4,5-tetrahydro-1,4-benzoxazepin-7-yl][1,3]thiazolo[5,4-b]pyridin-2-amine]
100 to 500 nM | ≤ 100 nM | Cc1nc(CN(C)C)nc(N2CCOc3ccc(-c4cnc5sc(N)nc5c4)cc3C2)c1CC(C)C [Compound 36, 6-(4-{2-[(dimethylamino)methyl]-6-methyl-5-(2-methylpropyl)pyrimidin-4-yl}-2,3,4,5-tetrahydro-1,4-benzoxazepin-7-yl)[1,3]thiazolo[5,4-b]pyridin-2-amine]
≤ 100 nM | ≤ 100 nM | Cc1nc(N)nc(N2CCOc3ccc(-c4cnc5sc(N)nc5c4)cc3C2)c1C#N [Compound 72, 2-amino-4-[7-(2-amino[1,3]thiazolo[5,4-b]pyridin-6-yl)-2,3-dihydro-1,4-benzoxazepin-4(5H)-yl]-6-methylpyrimidine-5-carbonitrile]
≤ 100 nM | ≤ 100 nM | Cc1nc(CN2CCCC2)nc(N2CCOc3ccc(-c4cnc5sc(N)nc5c4)cc3C2)c1C(C)C [Compound 28, 6-{4-[6-methyl-5-(1-methylethyl)-2-(pyrrolidin-1-ylmethyl)pyrimidin-4-yl]-2,3,4,5-tetrahydro-1,4-benzoxazepin-7-yl}[1,3]thiazolo[5,4-b]pyridin-2-amine]
≤ 100 nM | ≤ 100 nM | CCCc1c(Cl)nc(N)nc1N1CCOc2ccc(-c3cnc4sc(N)nc4c3)cc2C1 [Compound 9, 6-[4-(2-amino-6-chloro-5-propylpyrimidin-4-yl)-2,3,4,5-tetrahydro-1,4-benzoxazepin-7-yl][1,3]thiazolo[5,4-b]pyridin-2-amine]
100 to 500 nM | 500 to 2500 nM | Cc1nc(N)nc(N2CCOc3ccc(-c4cnc5sc(N)nc5c4)cc3C2)c1C1CC1 [Compound 41, 6-[4-(2-amino-5-cyclopropyl-6-methylpyrimidin-4-yl)-2,3,4,5-tetrahydro-1,4-benzoxazepin-7-yl][1,3]thiazolo[5,4-b]pyridin-2-amine]
≤ 100 nM | ≤ 100 nM | Cc1nc(N)nc(N2CCOc3ccc(-c4cnc5sc(N)nc5c4)cc3C2)c1-c1ccccc1 [Compound 39, 6-[4-(2-amino-6-methyl-5-phenylpyrimidin-4-yl)-2,3,4,5-tetrahydro-1,4-benzoxazepin-7-yl][1,3]thiazolo[5,4-b]pyridin-2-amine]
≤ 100 nM | ≤ 100 nM | Cc1nc(CNCCF)nc(N2CCOc3ccc(-c4cnc5sc(N)nc5c4)cc3C2)c1C(C)C [Compound 82, 6-{4-[2-{[(2-fluoroethyl)amino]methyl}-6-methyl-5-(1-methylethyl)pyrimidin-4-yl]-2,3,4,5-tetrahydro-1,4-benzoxazepin-7-yl}[1,3]thiazolo[5,4-b]pyridin-2-amine]
≤ 100 nM | ≤ 100 nM | CCc1c(Cl)nc(N)nc1N1CCOc2ccc(-c3cnc4sc(N)nc4c3)cc2C1 [Compound 7, 6-[4-(2-amino-6-chloro-5-ethylpyrimidin-4-yl)-2,3,4,5-tetrahydro-1,4-benzoxazepin-7-yl][1,3]thiazolo[5,4-b]pyridin-2-amine]
≤ 100 nM | 100 to 500 nM | Cc1cnc(N)nc1N1CCOc2ccc(-c3cnc4sc(N)nc4c3)cc2C1 [Compound 35, 6-[4-(2-amino-5-methylpyrimidin-4-yl)-2,3,4,5-tetrahydro-1,4-benzoxazepin-7-yl][1,3]thiazolo[5,4-b]pyridin-2-amine]
100 to 500 nM | 500 to 2500 nM | Cc1cc(N2CCOc3ccc(-c4cnc5sc(N)nc5c4)cc3C2)nc(N)n1 [Compound 46, 6-[4-(2-amino-6-methylpyrimidin-4-yl)-2,3,4,5-tetrahydro-1,4-benzoxazepin-7-yl][1,3]thiazolo[5,4-b]pyridin-2-amine]
≤ 100 nM | ≤ 100 nM | Cc1nc(C(N)=O)nc(N2CCOc3ccc(-c4cnc5sc(N)nc5c4)cc3C2)c1C(C)C [Compound 20, 4-[7-(2-amino[1,3]thiazolo[5,4-b]pyridin-6-yl)-2,3-dihydro-1,4-benzoxazepin-4(5H)-yl]-6-methyl-5-(1-methylethyl)pyrimidine-2-carboxamide]
≤ 100 nM | 500 to 2500 nM | Cc1nc(CN(C)C)nc(N2CCOc3ccc(-c4cnc5sc(N)nc5c4)cc3C2)c1Br [Compound 64, 6-(4-{5-bromo-2-[(dimethylamino)methyl]-6-methylpyrimidin-4-yl}-2,3,4,5-tetrahydro-1,4-benzoxazepin-7-yl)[1,3]thiazolo[5,4-b]pyridin-2-amine]
≤ 100 nM | ≤ 100 nM | C=Cc1c(C)nc(N)nc1N1CCOc2ccc(-c3cnc4sc(N)nc4c3)cc2C1 [Compound 52, 6-[4-(2-amino-5-ethenyl-6-methylpyrimidin-4-yl)-2,3,4,5-tetrahydro-1,4-bcnzoxazepin-7-yl][1,3]thiazolo[5,4-b]pyridin-2-amine]
≤ 100 nM | ≤ 100 nM | C/C=C/c1c(Cl)nc(N)nc1N1CCOc2ccc(-c3cnc4sc(N)nc4c3)cc2C1 [Compound 75, 6-(4-{2-amino-6-chloro-5-[(1E)-prop-1-en-1-yl]pyrimidin-4-yl}-2,3,4,5-tetrahydro-1,4-benzoxazepin-7-yl)[1,3]thiazolo[5,4-b]pyridin-2-amine]
≤ 100 nM | ≤ 100 nM | C=Cc1c(Cl)nc(N)nc1N1CCOc2ccc(-c3cnc4sc(N)nc4c3)cc2C1 [Compound 11, 6-[4-(2-amino-6-chloro-5-ethenylpyrimidin-4-yl)-2,3,4,5-tetrahydro-1,4-benzoxazepin-7-yl][1,3]thiazolo[5,4-b]pyridin-2-amine]
100 to 500 nM | ≤ 100 nM | Cc1nc(NS(C)(=O)=O)nc(N2CCOc3ccc(-c4cnc5sc(N)nc5c4)cc3C2)c1C(C)C [Compound 23, N-{4-(7-(2-amino[1,3]thiazolo[5,4-b]pyridin-6-yl)-2,3-dihydro-1,4-benzoxazepin-4(5H)-yl]-6-methyl-5-(1-methylethyl)pyrimidin-2-yl}methanesulfonamide]
≤ 100 nM | ≤ 100 nM | C=Cc1c(N2CCOc3ccc(-c4cnc5sc(N)nc5c4)cc3C2)nc(N)nc1C(F)(F)F [Compound 17, 6-{4-[2-amino-5-ethenyl-6-(trifluoromethyl)pyrimidin-4-yl]-2,3,4,5-tetrahydro-1,4-benzoxazepin-7-yl}[1,3]thiazolo[5,4-b]pyridin-2-amine]
≤ 100 nM | ≤ 100 nM | Cc1nc(CN(C)C)nc(N2CCOc3ccc(-c4cnc5sc(N)nc5c4)cc3C2)c1Cc1ccc(F)cc1 [Compound 62, 6-(4-{2-[(dimethylamino)methyl]-5-[(4-fluorophenyl)methyl]-6-methylpyrimidin-4-yl}-2,3,4,5-tetrahydro-1,4-benzoxazepin-7-yl)[1,3]thiazolo[5,4-b]pyridin-2-amine]
≤ 100 nM | ≤ 100 nM | CC(C)c1cnc(N)nc1N1CCOc2ccc(-c3cnc4sc(N)nc4c3)cc2C1 [Compound 95, 6-{4-[2-amino-5-(1-methylethyl)pyrimidin-4-yl]-2,3,4,5-tetrahydro-1,4-benzoxazepin-7-yl}[1,3]thiazolo[5,4-b]pyridin-2-amine]
≤ 100 nM | ≤ 100 nM | C=CCc1c(C)nc(CN(C)C)nc1N1CCOc2ccc(-c3cnc4sc(N)nc4c3)cc2C1 [Compound 70, 6-(4-{2-[(dimethylamino)methyl]-6-methyl-5-prop-2-en-1-ylpyrimidin-4-yl}-2,3,4,5-tetrahydro-1,4-benzoxazepin-7-yl)[1,3]thiazolo[5,4-b]pyridin-2-amine]
